Laboratory results taken from US20250262210A1, “LZTR1 MUTANT TUMORS AND METHODS THEREOF” (The Trustees of Columbia University in the City of New York, priority 2022, published 2025).
Peptide text beside a SMILES is read from it. * marks the point of attachment. Cbz = O=C(OCc1ccccc1)*

Tests used:
[1] = system: schwannoma-like cells from Lztr1fl/fl;Cdkn2Afl/fl;GFAP-Cre+ mice (E0954); test: Clonogenic assay of schwannoma-like cells; format: cell-based, mouse; conditions: single dose; 72 hr treatment; FIG. 15C-F
Description: 500 cells were seeded in triplicate wells of 6-well plates. […] Cells were stained with crystal violet and colonies were counted.

EGFR [2] = test: LZTR1-mediated destabilization of EGFR in transfected HEK 293T cells (western blot); format: cell-based; conditions: HEK 293T cells with EGFR-GFP and LZTR1-FLAG; FIG. 3A, 3C
Description: (§2) Cells were lysed in RIPA buffer (50 mM Tris-HCl, pH 7.5, 150 mM NaCl, 1 mM EDTA, 1% NP40, 0.5% sodium deoxycholate, 0.1% sodium dodecyl sulphate, 1.5 mM Na3VO4, 50 mM sodium fluoride, 10 mM sodium pyrophosphate, 10 mM β-glycerolphosphate and EDTA-free protease inhibitor cocktail (Roche)) or NP40 lysis buffer (50 mM Tris-HCl, pH 7.5, 150 mM NaCl, 1 mM EDTA, 1% NP40, 1.5 mM Na3VO4, 50 mM sodium fluoride, 10 mM sodium pyrophosphate, 10 mM β-glycerolphosphate and EDTA-free protease inhibitor cocktail (Roche)). Lysates were centrifuged 14,000 r.p.m. for 15 min at 4° C. and supernatant were collected. […] Beads were washed with lysis buffer four times and eluted in 2×SDS sample buffer. Immunoprecipitates or lysates were separated by SDS-PAGE and transferred to polyvinylidene difluoride or nitrocellulose membranes. Membranes were blocked in TBS-T (0.1% Tween20) with 5% non-fat milk or BSA and probed with primary antibodies.

AXL [3] = test: LZTR1-mediated destabilization of AXL in transfected HEK 293T cells (western blot); format: cell-based; conditions: HEK 293T cells with AXL-HA and LZTR1-FLAG; FIG. 3B, 3D
Description: as §2

RIT1 = test: LZTR1-mediated reduction of RIT1 in transfected HEK 293T cells (western blot); format: cell-based; conditions: HEK 293T cells with FLAG-RIT1 and LZTR1-FLAG; FIG. 10A, 10C
Description: as §2

EGFR [4] = test: Ubiquitylation assay of EGFR in HEK 293T cells; format: cell-based; conditions: MLN4924 1 μM, FIG. 3E
Description: (§1) 293T and Hela cells were transfected with plasmid expressing EGFR-GFP, HA-Ub and LZTR1-FLAG as indicated in figures and treated with MLN4924 (1 μM), chloroquine (CQ, 100 μM), MG132 (20 μM), or EGF (20 ng/ml or 100 ng/ml) and ubiquitylation assay was performed under denaturing condition. Cells were lysed in 1% SDS and boiled at 100° C. for 10 min. Lysates were diluted with tris buffered saline containing 1% N P40 and centrifuged 14000 r.p.m. for 15 min at 4° C. Immunoprecipitation was performed using 500 μg to 1 mg of cellular lysates using HA affinity gel (Sigma, E6779), AXL or EGFR antibodies at 4° C. overnight followed by protein G/A beads for 90 min at 4° C. […] Protein samples were separated by SDS-PAGE and transferred to PV DF membrane and analyzed by western blot.

AXL [5] = test: Ubiquitylation assay of AXL in Hela cells; format: cell-based; conditions: chloroquine 100 μM, MG132 20 μM, FIG. 3F
Description: as §1

[6] = system: subcutaneous tumors of schwannoma-like cells from Lztr1fl/fl;Cdkn2Afl/fl;GFAP-Cre+ mice (E0954); format: in vivo; conditions: single RTK inhibitor; summary in the discussion
Description: Mice were weighted daily. Tumor diameters were measured every 2 days with caliper and tumor volumes estimated using the formula: width2×length/2=V (mm3). Mice were euthanized when the tumor size reached 2,000 mm3 or if the skin was ulcerated, according to IACUC recommendation. All experiments were performed according to the guidelines of the Institutional Animal Care and Use Committee at Columbia University.

## CN(C)C/C=C/C(=O)Nc1cc2c(Nc3ccc(F)c(Cl)c3)ncnc2cc1O[C@H]1CCOC1 [afatinib]
[1]
  clonogenicity: ineffective

## C=CC(=O)Nc1cc(Nc2nccc(-c3cn(C)c4ccccc34)n2)c(OC)cc1N(C)CCN(C)C [osimertinib]
[1]
  clonogenicity: ineffective

## NS(=O)(=O)OC[C@@H]1C[C@@H](n2ccc3c(N[C@H]4CCc5ccccc54)ncnc32)C[C@@H]1O [MLN4924]
EGFR [2]
  LZTR1-mediated destabilization of EGFR: rescued
AXL [3]
  LZTR1-mediated destabilization of AXL: rescued
RIT1
  RIT1 reduction by LZTR1: rescued
EGFR [4]
  LZTR1-increased formation of high molecular weight polyubiquitylated EGFR: abolished

## CCN(CC)CCCC(C)Nc1ccnc2cc(Cl)ccc12 (stereo not shown) [chloroquine]
AXL [5]
  LZTR1-increased polyubiquitylated species of AXL: accumulated at much higher levels

## Nc1nc(Nc2ccc3c(c2)CC[C@@H](N2CCCC2)CC3)nn1-c1cc2c(nn1)-c1ccccc1CCC2 [bemcentinib]
[1]
  clonogenicity: ineffective
[6]
  therapeutic effect of single treatment: minimal

## CC(C)C[C@@H](C=O)NC(=O)[C@H](CC(C)C)NC(=O)[C@H](CC(C)C)NC(=O)OCc1ccccc1 [MG132] (Cbz-Leu-Leu-Leu-aldehyde)
AXL [5]
  LZTR1-increased polyubiquitylated species of AXL: ineffective

## CO/C1=C\C(C)=C\[C@@H](C)[C@@H](O)[C@@H](C)C/C(C)=C/C=C/[C@H](OC)[C@@H]([C@@H](C)[C@@H](O)[C@H](C)[C@@]2(O)C[C@@H](O)[C@H](C)[C@@H](C(C)C)O2)OC1=O [bafilomycin A1]
EGFR [2]
  LZTR1-mediated destabilization of EGFR: relieved
AXL [3]
  LZTR1-mediated destabilization of AXL: relieved

## CC(C)C[C@H](NC(=O)[C@H](Cc1ccccc1)NC(=O)c1cnccn1)B(O)O [bortezomib]
RIT1
  RIT1 reduction by LZTR1: rescued
